# Measurements taken from patent US6960574B2, “Antagonists of RF-amide neuropeptides” (University of Florida, priority 2002, dated 2005).
# Peptide text beside a SMILES is read from it. * marks the point of attachment. Dansyl = CN(C)c1cccc2c(S(=O)(=O)*)cccc12
# System: receptor labeled by the radioiodinated analogue of 1 (4, [125I]-YLFQPQRF-NH2); neuropeptide FF receptor
# Assay: Competitive radioligand binding against 4 ([125I]Y8F-amide)
# Details: mixture-based positional scanning; difference from averaged radioligand displacement of whole library (0); about 80 a.u. = 10-fold change in Ki
row,Relative Binding Index (RBI),SMILES
1,−48 a.u.,CN(C)c1cccc2c(S(=O)(=O)N3CCC[C@H]3C(=O)N[C@@H](CCC(=O)O)C(=O)N[C@@H](CCCNC(=N)N)C(N)=O)cccc12 [Dansyl-PER-amide] (Dansyl-Pro-Glu-Arg-NH2)
2,−49 a.u.,CN(C)c1cccc2c(S(=O)(=O)N3CCC[C@H]3C(=O)N[C@@H](Cc3ccccc3)C(=O)N[C@@H](CCCNC(=N)N)C(N)=O)cccc12 [Dansyl-PFR-amide] (Dansyl-Pro-Phe-Arg-NH2)
3,−43 a.u.,CN(C)c1cccc2c(S(=O)(=O)N3CCC[C@H]3C(=O)NCC(=O)N[C@@H](CCCNC(=N)N)C(N)=O)cccc12 [Dansyl-PGR-amide] (Dansyl-Pro-Gly-Arg-NH2)
4,−54 a.u.,CN(C)c1cccc2c(S(=O)(=O)N3CCC[C@H]3C(=O)N[C@@H](Cc3cnc[nH]3)C(=O)N[C@@H](CCCNC(=N)N)C(N)=O)cccc12 [Dansyl-PHR-amide] (Dansyl-Pro-His-Arg-NH2)
5,−41 a.u.,CC[C@H](C)[C@H](NC(=O)[C@@H]1CCCN1S(=O)(=O)c1cccc2c(N(C)C)cccc12)C(=O)N[C@@H](CCCNC(=N)N)C(N)=O [Dansyl-PIR-amide] (Dansyl-Pro-Ile-Arg-NH2)
6,−50 a.u.,CN(C)c1cccc2c(S(=O)(=O)N3CCC[C@H]3C(=O)N[C@@H](CCCCN)C(=O)N[C@@H](CCCNC(=N)N)C(N)=O)cccc12 [Dansyl-PKR-amide] (Dansyl-Pro-Lys-Arg-NH2)
7,−56 a.u.,CC(C)C[C@H](NC(=O)[C@@H]1CCCN1S(=O)(=O)c1cccc2c(N(C)C)cccc12)C(=O)N[C@@H](CCCNC(=N)N)C(N)=O [Dansyl-PLR-amide] (Dansyl-Pro-Leu-Arg-NH2)
8,−48 a.u.,CSCC[C@H](NC(=O)[C@@H]1CCCN1S(=O)(=O)c1cccc2c(N(C)C)cccc12)C(=O)N[C@@H](CCCNC(=N)N)C(N)=O [Dansyl-PMR-amide] (Dansyl-Pro-Met-Arg-NH2)
9,−47 a.u.,CN(C)c1cccc2c(S(=O)(=O)N3CCC[C@H]3C(=O)N[C@@H](CC(N)=O)C(=O)N[C@@H](CCCNC(=N)N)C(N)=O)cccc12 [Dansyl-PNR-amide] (Dansyl-Pro-Asn-Arg-NH2)
10,−45 a.u.,CN(C)c1cccc2c(S(=O)(=O)N3CCC[C@H]3C(=O)N3CCC[C@H]3C(=O)N[C@@H](CCCNC(=N)N)C(N)=O)cccc12 [Dansyl-PPR-amide] (Dansyl-Pro-Pro-Arg-NH2)
11,−49 a.u.,CN(C)c1cccc2c(S(=O)(=O)N3CCC[C@H]3C(=O)N[C@@H](CCCNC(=N)N)C(=O)N[C@@H](CCCNC(=N)N)C(N)=O)cccc12 [Dansyl-PRR-amide]
12,−27 a.u.,CN(C)c1cccc2c(S(=O)(=O)N3CCC[C@H]3C(=O)N[C@@H](CO)C(=O)N[C@@H](CCCNC(=N)N)C(N)=O)cccc12 [Dansyl-PSR-amide] (Dansyl-Pro-Ser-Arg-NH2)
13,−42 a.u.,C[C@@H](O)[C@H](NC(=O)[C@@H]1CCCN1S(=O)(=O)c1cccc2c(N(C)C)cccc12)C(=O)N[C@@H](CCCNC(=N)N)C(N)=O [Dansyl-PTR-amide] (Dansyl-Pro-Thr-Arg-NH2)
14,−53 a.u.,CC(C)[C@H](NC(=O)[C@@H]1CCCN1S(=O)(=O)c1cccc2c(N(C)C)cccc12)C(=O)N[C@@H](CCCNC(=N)N)C(N)=O [Dansyl-PVR-amide] (Dansyl-Pro-Val-Arg-NH2)
15,−39 a.u.,CN(C)c1cccc2c(S(=O)(=O)N3CCC[C@H]3C(=O)N[C@@H](Cc3c[nH]c4ccccc34)C(=O)N[C@@H](CCCNC(=N)N)C(N)=O)cccc12 [Dansyl-PWR-amide] (Dansyl-Pro-Trp-Arg-NH2)
16,−28 a.u.,C[C@H](NC(=O)[C@H](CCC(N)=O)NS(=O)(=O)c1cccc2c(N(C)C)cccc12)C(=O)N[C@@H](CCCNC(=N)N)C(N)=O [Dansyl-QAR-amide] (Dansyl-Gln-Ala-Arg-NH2)
17,3 a.u.,CN(C)c1cccc2c(S(=O)(=O)N[C@@H](CCC(N)=O)C(=O)N[C@@H](CC(=O)O)C(=O)N[C@@H](CCCNC(=N)N)C(N)=O)cccc12 [Dansyl-QDR-amide] (Dansyl-Gln-Asp-Arg-NH2)
18,22 a.u.,CN(C)c1cccc2c(S(=O)(=O)N[C@@H](CCC(N)=O)C(=O)N[C@@H](CCC(=O)O)C(=O)N[C@@H](CCCNC(=N)N)C(N)=O)cccc12 [Dansyl-QER-amide] (Dansyl-Gln-Glu-Arg-NH2)
19,20 a.u.,CN(C)c1cccc2c(S(=O)(=O)N[C@@H](CCC(N)=O)C(=O)N[C@@H](Cc3ccccc3)C(=O)N[C@@H](CCCNC(=N)N)C(N)=O)cccc12 [Dansyl-QFR-amide]
20,27 a.u.,CN(C)c1cccc2c(S(=O)(=O)N[C@@H](CCC(N)=O)C(=O)NCC(=O)N[C@@H](CCCNC(=N)N)C(N)=O)cccc12 [Dansyl-QGR-amide] (Dansyl-Gln-Gly-Arg-NH2)
21,16 a.u.,CN(C)c1cccc2c(S(=O)(=O)N[C@@H](CCC(N)=O)C(=O)N[C@@H](Cc3c[nH]cn3)C(=O)N[C@@H](CCCNC(=N)N)C(N)=O)cccc12 [Dansyl-QHR-amide] (Dansyl-Gln-His-Arg-NH2)
22,28 a.u.,CC[C@H](C)[C@H](NC(=O)[C@H](CCC(N)=O)NS(=O)(=O)c1cccc2c(N(C)C)cccc12)C(=O)N[C@@H](CCCNC(=N)N)C(N)=O [Dansyl-QIR-amide] (Dansyl-Gln-Ile-Arg-NH2)
23,19 a.u.,CN(C)c1cccc2c(S(=O)(=O)N[C@@H](CCC(N)=O)C(=O)N[C@@H](CCCCN)C(=O)N[C@@H](CCCNC(=N)N)C(N)=O)cccc12 [Dansyl-QKR-amide] (Dansyl-Gln-Lys-Arg-NH2)
24,13 a.u.,CC(C)C[C@H](NC(=O)[C@H](CCC(N)=O)NS(=O)(=O)c1cccc2c(N(C)C)cccc12)C(=O)N[C@@H](CCCNC(=N)N)C(N)=O [Dansyl-QLR-amide] (Dansyl-Gln-Leu-Arg-NH2)
25,21 a.u.,CSCC[C@H](NC(=O)[C@H](CCC(N)=O)NS(=O)(=O)c1cccc2c(N(C)C)cccc12)C(=O)N[C@@H](CCCNC(=N)N)C(N)=O [Dansyl-QMR-amide] (Dansyl-Gln-Met-Arg-NH2)
26,23 a.u.,CN(C)c1cccc2c(S(=O)(=O)N[C@@H](CCC(N)=O)C(=O)N[C@@H](CC(N)=O)C(=O)N[C@@H](CCCNC(=N)N)C(N)=O)cccc12 [Dansyl-QNR-amide] (Dansyl-Gln-Asn-Arg-NH2)
27,25 a.u.,CN(C)c1cccc2c(S(=O)(=O)N[C@@H](CCC(N)=O)C(=O)N3CCC[C@H]3C(=O)N[C@@H](CCCNC(=N)N)C(N)=O)cccc12 [Dansyl-QPR-amide] (Dansyl-Gln-Pro-Arg-NH2)
28,35 a.u.,"CN(C)c1cccc2c(S(=O)(=O)N[C@@H](CCC(N)=O)C(=O)N[C@@H](CCC(N)=O)C(=O)N[C@@H](CCCNC(=N)N)C(N)=O)cccc12 [Dansyl-QQR-amide, dansyl-Gln-Gln-Arg-NH2] (Dansyl-Gln-Gln-Arg-NH2)"
29,20 a.u.,CN(C)c1cccc2c(S(=O)(=O)N[C@@H](CCC(N)=O)C(=O)N[C@@H](CCCNC(=N)N)C(=O)N[C@@H](CCCNC(=N)N)C(N)=O)cccc12 [Dansyl-QRR-amide] (Dansyl-Gln-Arg-Arg-NH2)
30,42 a.u.,"CN(C)c1cccc2c(S(=O)(=O)N[C@@H](CCC(N)=O)C(=O)N[C@@H](CO)C(=O)N[C@@H](CCCNC(=N)N)C(N)=O)cccc12 [Dansyl-QSR-amide, dansyl-Gln-Ser-Arg-NH2] (Dansyl-Gln-Ser-Arg-NH2)"
